Experimental data: patent US9808530B2, “Composition of tiacumicin compounds” (Astellas Pharma Europe Ltd., priority 2013, dated 2017)

Legend:
[1] = Foaming property of fidaxomicin suspensions in water (tube shaken, foaming checked); format: physicochemical; settings: 400 mg fidaxomicin in 10 mL distilled water; immediately after preparation and 1 hour after preparation
Procedure: To 400 mg of fidaxomicin was added 10 mL of distilled water in a tube. The mixture was shaken and allowed to stand.
Hydroxypropylcellulose (HPC-L (middle viscosity grade) and HPC-SSL (low viscosity grade) respectively), in a concentration of 0.3 and 0.6 w/v % respectively, was added to 5 mL of distilled water in a tube which contained 0 and 200 mg respectively of fidaxomicin. Each mixture was shaken and allowed to stand.
Xanthan gum in a concentration of 0.2% w/v was added to 5 mL of distilled water in a tube, which contained 0 and 200 mg respectively of fidaxomicin. Each mixture was shaken and allowed to stand.
An amount of the granulate corresponding to 200 mg fidaxomicin was weighed into a tube and 5 ml, of water was added. The tube was vigorously shaken for about 1 min. Foaming of the suspension was not observed.
An amount of each of the granulates OS-5-OS-9, corresponding to 200 mg fidaxomicin, was weighed into a tube and 5 mL of water was added. Further, suspensions OS-10 and OS-11 were prepared by addition of 2.5 mg and 5.0 mg respectively of xanthan gum to a suspension with composition OS-5. Each tube was vigorously shaken for about 1 min. In none of the suspensions foaming was observed.
Each of the granulate compositions OS-1, OS-2 and OS-3 was weighed into a tube, water was added and the tubes were vigorously shaken for about 1 minute. […]

[2] = oral administration; cited from earlier work
[3] = Storage stability of fidaxomicin with a sugar in a ratio of 1:9; format: physicochemical; settings: glass bottle
Procedure: Fidaxomicin and a sugar, selected from the group consisting of D-mannitol, erythritol, isomalt and trehalose, in a ratio of 1:9, were transferred into a glass bottle and stored at 5° C. during 10 days, 70° C. during 9 days and 40° C./75% RH during 1 month, respectively. In the presence of each sugar the degradation of fidaxomicin increased when stored at 70° C. during 9 days. […] (see Table 7).

[4] = low solubility, low permeability; cited from earlier work

foaming property on contact with water [1]: intrinsically foaming property
Total related substances (%) ([3]; 5° C./10 days): 1.91%
Total related substances (%) ([3]; 70° C./9 days): 5.10%
Compound: CCc1c(Cl)c(O)c(Cl)c(O)c1C(=O)O[C@H]1[C@H](O)[C@H](OC)[C@H](OC/C2=C\C=C\C[C@H](O)/C(C)=C/[C@H](CC)[C@@H](O[C@@H]3OC(C)(C)[C@@H](OC(=O)C(C)C)[C@H](O)[C@@H]3O)/C(C)=C/C(C)=C/C[C@@H]([C@@H](C)O)OC2=O)O[C@@H]1C [fidaxomicin, 3-[[[6-deoxy-4-O-(3,5-dichloro-2-ethyl-4,6-dihydroxybenzoyl)-2-O-methyl-β-D-mannopyranosyl]oxy]methyl]-12(R)-[[6-deoxy-5-C-methyl-4-O-(2-methyl-1-oxopropyl)-β-D-lyxo-hexopyranosyl]oxy]-11(S)-ethyl-8(S)-hydroxy-18(S)-(1(R)-hydroxyethyl)-9,13,15-trimethyloxacyclooctadeca-3,5,9,13,15-pentaen-2-one]
absorption from the intestinal tract [2]: poorly absorbed
BCS class [4]: BCS Class IV
